From patent US9527840B2, “Substituted-quinoxaline-type piperidine compounds and the uses thereof” (priority 2007, dated 2016)

Columns and labels:
kappa opioid receptor = kappa opioid receptor (Homo sapiens, UniProt P41145); assay: In vitro kappa-opioid receptor functional assay ([35S]GTPγS); format: biochemical
hERG channel = molecular target: T1, hERG channel (Homo sapiens, UniProt Q12809); assay: In vitro hERG (human ether a-go-go gene) assay; format: cell-based
T1 construct: expressed in transfected cells

[1] = rat, in vivo
[2] = tested on: guinea pig purkinje fibers

kappa opioid receptor, sequence (P41145 whole entry): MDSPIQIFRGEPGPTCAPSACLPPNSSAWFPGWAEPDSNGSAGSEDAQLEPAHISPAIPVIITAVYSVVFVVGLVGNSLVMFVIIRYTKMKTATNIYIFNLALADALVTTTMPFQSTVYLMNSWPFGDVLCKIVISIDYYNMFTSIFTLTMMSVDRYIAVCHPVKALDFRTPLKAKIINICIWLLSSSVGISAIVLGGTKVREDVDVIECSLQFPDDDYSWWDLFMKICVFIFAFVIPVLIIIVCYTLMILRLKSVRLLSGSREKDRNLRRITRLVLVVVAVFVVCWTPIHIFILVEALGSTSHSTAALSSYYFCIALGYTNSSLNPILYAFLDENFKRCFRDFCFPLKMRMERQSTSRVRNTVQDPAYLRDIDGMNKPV
T1 sequence (Q12809 whole entry): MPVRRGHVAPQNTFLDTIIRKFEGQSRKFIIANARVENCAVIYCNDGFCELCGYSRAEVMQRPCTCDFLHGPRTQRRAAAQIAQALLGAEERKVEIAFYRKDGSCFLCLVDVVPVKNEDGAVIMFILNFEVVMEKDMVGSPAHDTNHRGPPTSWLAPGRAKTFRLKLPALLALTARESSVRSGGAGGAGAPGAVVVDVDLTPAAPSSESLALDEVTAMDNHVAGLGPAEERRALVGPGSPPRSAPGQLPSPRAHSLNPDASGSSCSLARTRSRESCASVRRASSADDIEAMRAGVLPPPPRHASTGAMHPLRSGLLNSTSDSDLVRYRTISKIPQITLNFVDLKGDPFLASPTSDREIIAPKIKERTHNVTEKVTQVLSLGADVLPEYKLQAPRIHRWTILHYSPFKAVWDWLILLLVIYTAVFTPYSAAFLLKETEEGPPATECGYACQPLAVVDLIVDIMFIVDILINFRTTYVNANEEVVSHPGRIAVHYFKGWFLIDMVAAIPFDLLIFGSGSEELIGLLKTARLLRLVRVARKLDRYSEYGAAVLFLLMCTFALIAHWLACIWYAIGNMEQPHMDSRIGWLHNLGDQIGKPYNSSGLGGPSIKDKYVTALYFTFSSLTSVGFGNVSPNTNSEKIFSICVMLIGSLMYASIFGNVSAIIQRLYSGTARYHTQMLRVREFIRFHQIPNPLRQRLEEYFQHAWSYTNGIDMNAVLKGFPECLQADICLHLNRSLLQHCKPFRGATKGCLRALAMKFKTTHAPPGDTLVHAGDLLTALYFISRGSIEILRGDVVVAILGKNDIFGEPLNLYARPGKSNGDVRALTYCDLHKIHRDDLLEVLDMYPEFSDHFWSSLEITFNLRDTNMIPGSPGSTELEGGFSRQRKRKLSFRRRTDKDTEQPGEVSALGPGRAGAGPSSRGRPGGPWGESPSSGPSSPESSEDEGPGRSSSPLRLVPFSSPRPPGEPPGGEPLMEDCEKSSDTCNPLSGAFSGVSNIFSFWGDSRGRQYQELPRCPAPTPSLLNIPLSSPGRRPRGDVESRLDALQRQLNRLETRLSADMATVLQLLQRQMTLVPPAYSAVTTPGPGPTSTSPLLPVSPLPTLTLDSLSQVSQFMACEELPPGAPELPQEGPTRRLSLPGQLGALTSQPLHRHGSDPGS

| Structure (SMILES) | EC50 (kappa opioid receptor) | cardiovascular side effects (hERG assay) (hERG channel) | abnormal behavioral side effects, such as sedation, hyperactivity and/or hypoactivity [1] | cardiovascular side effects (APD) [2] |
| --- | --- | --- | --- | --- |
| O=C(O)C1CCN(c2nc3ccccc3n([C@H]3C[C@H]4CC[C@@H](C3)N4C3CCCCCCC3)c2=O)CC1 [Compound 99, 1-(4-((endo)-8-cyclooctyl-8-azabicyclo[3.2.1]octan-3-yl)-3-oxo-3,4-dihydroquinoxalin-2-yl)piperidine-4-carboxylic acid] | > 100 µM |  |  |  |
| O=C(O)c1nc2ccccc2n([C@H]2C[C@H]3CCC[C@@H](C2)N3C2CC3CCCC(C3)C2)c1=O (stereo partly drawn) [Compound 362, 4-((endo)-9-((exo)-bicyclo[3.3.1]nonan-3-yl)-9-azabicyclo[3.3.1]nonan-3-yl)-3-oxo-3,4-dihydroquinoxaline-2-carboxylic acid] |  | reduced cardiovascular side effects | reduced abnormal behavioral side effects | reduced cardiovascular side effects |
